# Reference: patent US9801388B2, “Method for a pesticide having an insecticide, acaricide and nematicide action based on isoquinoline alkaloids and flavonoids” (PROMOTORA TECNICA INDUSTRIAL, S.A. DE C.V., priority 2011, dated 2017)
# Legend:
# [1] = system: humans; conditions: toxic for humans; cited from earlier work
# [2] = system: mammals; conditions: toxic for mammals; cited from earlier work
# [3] = system: Diaphorina sp adults; assay: Field evaluation of effectiveness against Diaphorina sp adults in Citrus sp. crop; format: in vivo; conditions: dose 5 mL/L
# Description: (§1) In accordance with the effectiveness percentages mentioned above, both of the developed products show a significant effectiveness to control insects belonging to the genus Bemisia. The evaluation was carried out four days after the application. The formulations were also applied to observe their effectiveness in the crop of Citrus sp. in controlling two pest species: Diaphorina sp. (adult and nymph) and mites of the genus Polyphagotarsonemus.
# (§2) Table III describes the effectiveness of the above mentioned treatments in controlling Diaphorina sp. nymphs.
# [4] = system: Diaphorina sp nymphs; assay: Field evaluation of effectiveness against Diaphorina sp nymphs in Citrus sp. crop; format: in vivo; conditions: dose 5 mL/L
# Description: as §1, §2
# [5] = system: insects of the genus Bemisia; assay: In vitro (laboratory) evaluation of effectiveness against Bemisia; format: in vivo; conditions: dose 2 mL/L (recommended by the manufacturer), 24 hours after application
# Description: In the laboratory assay both products were diluted to 5 mL of the formulation in 1 L of distilled water, and they were applied against insects of the genus Bemisia. To compare the effectiveness of the formulation distilled water was also applied as an absolute control and bifenthrin ([1a,3a-(Z)]-(±)-(2methyl[1,1′-biphenyl]-3-il)methyl-3-(2-cloro-3,3,3-trifluorine-1-propenyl-2,2-dimethyl cyclopropanecarboxylate) was applied as a commercial control. The application of the formulation was performed in laboratory conditions using devices to keep the specimens under observation. The effectiveness evaluation was carried out 24 hours after the application.
# The experimental unit consisted of four devices that were kept at 26 (±2° C.). Three repetitions of each evaluation were performed.
# In Table VI, the effectiveness observed in insects of the genus Bemisia after 24 hours of observation with each of the treatments is detailed. The dose of the commercial control (Bifenthrin) was that recommended by the manufacturer.
# [6] = system: nematodes of the genus Meloidogyne; assay: In vitro evaluation of effectiveness against Meloidogyne nematodes; format: in vivo; conditions: dilution 1:200, after 48 hours
# Description: The nematicide capacity of formulation 2 was evaluated; a satisfactory percentage after 48 hours was obtained.
# [7] = system: larvae of genus Plutella; assay: Field evaluation of effectiveness against Plutella larvae in Brassica oleracea crop; format: in vivo; conditions: dose 100 mL/Ha, fourth day after application
# Description: With the Brassica oleracea crop assessments of the control of larvae of the Plutella genus was performed, the results of this assessment are shown in Table V. The assessment was carried out the fourth day after the application.
molecule,measurement,setting,value
C=C(C)[C@H]1Cc2c(ccc3c2O[C@@H]2COc4cc(OC)c(OC)cc4[C@@H]2C3=O)O1 [Rotenone],DL50,[1],132 mg/kg
COc1ccc(C(=O)O[C@H]2CC[C@@]3(C)[C@@H]4CC[C@H]5[C@]6(O)C[C@H](O)[C@@]7(O)[C@@H](CN8C[C@@H](C)CC[C@H]8[C@@]7(C)O)[C@]6(O)C[C@@]53O[C@]24O)cc1OC [veratridine],DL50,[2],13 mg/kg
CNC(=O)CSP(=S)(OC)OC [Dimethoate],Effectiveness %,[3],100%
same,Effectiveness %,[4],100%
"Cc1c(COC(=O)[C@@H]2[C@H](/C=C(\Cl)C(F)(F)F)C2(C)C)cccc1-c1ccccc1 (racemic) [Bifenthrin, [1a,3a-(Z)]-(±)-(2methyl[1,1′-biphenyl]-3-il)methyl-3-(2-cloro-3,3,3-trifluorine-1-propenyl-2,2-dimethyl cyclopropanecarboxylate]",Effectiveness %,[5],97.18%
CNC(=O)Oc1cccc2c1OC(C)(C)C2 [Carbofuran],Effectiveness %,[6],100%
C/C=C(/C)C(=O)O[C@H]1CC[C@@]2(C)[C@@H]3CC[C@H]4[C@]5(O)C[C@H](O)[C@@]6(O)[C@@H](CN7C[C@@H](C)CC[C@H]7[C@@]6(C)O)[C@]5(O)C[C@@]42O[C@]13O [cevadine],DL50,[2],13 mg/kg
Spinosad,Effectiveness %,[7],52.8%
